According to US20160082016A1, “Use of Clonazepam in Combination with Antibiotic in the Treatment of Bacterially Induced Meningitis” (COMMISSARIAT A L'ENERGIE ATOMIQUE ET AUX ENERGIES …, priority 2013, published 2016):

Legend:
[1] = system: Streptococcus Pneumoniae; assay: Antibiogram: growth inhibition diameter around paper disks on Mueller-Hinton gelose; format: cell-based; settings: 24 hours, FIG. 5
Protocol: Antibiograms have been performed on the same Streptococcus Pneumoniae strain, on a Mueller-Hinton gelose plate of 90 mm diameter (Biorad) as follows 40 μL of the prepared bacteria were added to 5 mL PBS and the mix is spread on the gelose plate. The remaining liquid mix is thrown and the plate was incubated at 37° C. during 15 minutes. Antibiotic paper disks of 6mm diameter (Dominique Dutscher) were then overwhelmed with 25 μL of each molecule/combination and placed on the Mueller-Hinton gelose for 24 hours. The inhibition diameter of bacterial cell growth around the disks was then measured. • Ceftriaxone (3,2-1,6-0,8-0,4-0,2-0,1-0,05 μg/mL) • Clonazepam (10-1-0,1 μg/mL) • Ceftriaxone (0,8-0,2-0,05 μg/mL)+Clonazepam (0,1 μg/mL)

[2] = system: Streptococcus Pneumoniae; assay: Survival of Swiss mice inoculated with Streptococcus Pneumoniae, treated with ceftriaxone plus adjuvant (bacterial meningitis model); format: in vivo
Protocol: 200 μL of suspended 1 Mc Farland bacteria (Streptococcus Pneumoniae, CRBIP, Institut Pasteur) were seeded overnight on blood Columbia plates (BioRad). 24 h later, bacteria were suspended in 5 mL phosphate buffer solution (PBS), and diluted to obtain 1 Mc Farland 600 nm optical density (3,2.10^7 bacteria/mL for this strain).
A mice model mimicking human bacterial meningitis (Gerber G., Acta Neuropathol. 2001) was implemented; Swiss male mice were used, with food and water ab libitum. Mice were anaesthetized using isoflurane.
The Swiss mice model has been chosen for the following reasons: • It is possible to induce bacterial meningitis in a direct and reproducible way (Gerber G., Acta Neuropathol. 2001). • The induced meningitis is similar to human meningitis (Gerber G., Acta Neuropathol. 2001). In particular, the inoculated mice present several […] symptoms/responses as infected humans. The data obtained with this model can therefore be transposed to human. • Efficiency of antibiotic agents for treating bacterial meningitis is currently studied in mice (Shapiro M. A. et al, J. Antimicrob. Chemother. 2000).
A 1/80 dilution of the prepared bacteria was then performed, so as to obtain 10^4 bacteria in 25 μL. 25 μL bacteria suspension were injected in the left brain hemisphere. 24 h, 48 h and 72 h later, mice were treated with 4 mg/day, 0.4 mg/day and 0.4 mg/day respectively of ceftriaxone. Clonazepam (or saline buffer, or water) was administrated 25 h post inoculation, by intraperitoneal (ip) or oral (po) route. Mortality was assessed several times per day, during 9 days.

[3] = in vivo; cited from earlier work
[4] = system: pentylenetetrazol (PTZ) induced tonic seizures; assay: Anti-epileptic effect at low dose: time before pentylenetetrazol (PTZ) induced tonic seizure; format: in vivo, mice

Row | Structure (SMILES) | Growth inhibition diameter ([1]; ceftriaxone alone 0,05-3,2 μg/mL) | Growth inhibition diameter (potentiation of ceftriaxone in vitro) ([1]; ceftriaxone 0,8-0,2-0,05 μg/mL + clonazepam 0,1 μg/mL) | Growth inhibition diameter (intrinsic antibiotic activity) ([1]; clonazepam alone 10, 1, 0,1 μg/mL) | Kaplan-Meier survival rate ([2]; clonazepam 1 μg/kg ip + ceftriaxone, compared with 4 μg/kg, p=0,045 Logrank, FIG. 2) | Kaplan-Meier survival rate ([2]; clonazepam 2 μg/kg ip + ceftriaxone, compared with 4 μg/kg, p=0,045 Logrank, FIG. 2) | Kaplan-Meier survival rate ([2]; clonazepam 4 μg/kg ip 25 h after inoculation + ceftriaxone 4, 0.4, 0.4 mg/day at 24, 48, 72 h, vs ceftriaxone + NaCl, p=0,04 Logrank, FIG. 1) | Kaplan-Meier survival rate, oral vs intraperitoneal ([2]; clonazepam 4 μg/kg orally + ceftriaxone, compared with intraperitoneally administered combination, FIGS. 1, 3, 6) | Kaplan-Meier survival rate ([2]; clonazepam 20 μg/kg ip + ceftriaxone, compared with 4 μg/kg, FIG. 1) | Kaplan-Meier survival rate ([2]; clonazepam 100 μg/kg ip + ceftriaxone, compared with 4 μg/kg, FIG. 1) | Amount giving satisfactory potentiating effects in mice ([2]; mice, clonazepam with antibiotic) | half-life [3] [h] | Anti-epileptic effect (time before tonic seizures) ([4]; Streptococcus Pneumoniae inoculated mice, clonazepam doses inferior to 5 μg/kg, FIG. 4) | Anti-epileptic effect at the efficient adjuvant dose ([4]; clonazepam 4 μg/kg, concluded from the 1-125 μg/kg experiments) | Amount at which clonazepam has an anti-epileptic effect ([4]; healthy (non inoculated) mice, ip pretreatment 60 min before PTZ, FIG. 4) [µg/kg] | Anti-epileptic effect (time before tonic seizures) ([4]; healthy mice, clonazepam 1 μg/kg ip, FIG. 4) | Anti-epileptic effect (time before tonic seizures) ([4]; healthy mice, clonazepam 5 μg/kg ip, FIG. 4)
1 | CO/N=C(\C(=O)N[C@@H]1C(=O)N2C(C(=O)O)=C(CSc3nc(=O)c(=O)[nH]n3C)CS[C@H]12)c1csc(N)n1 [ceftriaxone] | inhibit bacterial growth in a dose-dependent manner |  |  |  |  |  |  |  |  |  |  |  |  |  |  | 
2 | O=C1CN=C(c2ccccc2Cl)c2cc([N+](=O)[O-])ccc2N1 [clonazepam, 5-(2-chlorphenyl)-1,3-dihydro-7-nitro-2H-1,4-benzodiazepine-2-one] |  | Nor is it able to potentiate the antibiotic activity of ceftriaxone in vitro | no intrinsic antibiotic activity | significantly less efficient | significantly less efficient | survival increase | lower | not as efficient | not as efficient | at least 2 μg/kg | 18 to 50 | no epileptic effect | no epileptic effect | ≥ 25 | no effect | no effect
